According to US20100284927A1, “USE OF MRI CONTRAST AGENTS FOR EVALUATING THE TREATMENT OF TUMORS” (University of Utah Research Foundation, priority 2007, published 2010):
Several values for one entry are separate records, joined by “and”; a condition that tells them apart may be missing. Identical values can stand only once. Marks after values point to notes of the source that are not given here.

Assays:
[1] = tested on: MDA-MB-231 human breast cancer tumors; assay: 2D spin echo MRI with various doses of GDCC-40 (section II); assay type: in vivo, athymic nude mice; details: 2D SE images
[2] = tested on: MDA-MB-231 human breast cancer tumors; assay: Contrast enhanced 2D spin echo MRI, SI enhancement of tumors (section I); assay type: in vivo, athymic nude mice; details: 2D SE images; for SI enhancement ratio (SI post/SI pre) of the whole untreated tumor: Gd-(DTPA-BMA) 0.1 mmol-Gd/kg, GDCC-40 0.05 mmol-Gd/kg i.v.; for residual tumor enhancement ratio (SI post/SI pre): residual tumor after treatment, Gd-(DTPA-BMA) 0.1, GDCC-40 0.05 mmol-Gd/kg i.v.
[3] = tested on: MDA-MB-231 human breast cancer tumors; assay: DCE-MRI with linear compartmental model, PV, FLR and PS (section II); assay type: in vivo, athymic nude mice
[4] = tested on: HT-29 human colon carcinoma; assay: DCE-MRI assessment of anti-angiogenic effect of Avastin, K^trans and fPV of tumor rim; assay type: in vivo, NCr-nu/nu nude mice; details: for K^trans 36 h after treatment / fpv 36 h after treatment: 36 h after initiating Avastin 200 μg/mouse i.p.; for K^trans 7 days after treatment / fpv 7 days after treatment: 7 days after initiating Avastin 200 μg/mouse i.p. every 2 days; for K^trans pretreatment / fpv pretreatment: before Avastin, GDCC40K 0.05, Omniscan 0.1 mmol-Gd/kg
[5] = tested on: MDA-MB-231 human breast cancer tumors; assay: DCE-MRI with linear compartmental model, PV and FLR, SI time curves (section I); assay type: in vivo, athymic nude mice; details: for FLR, tumor center / FLR, tumor rim / FLR, whole tumor: fractional leakage rate; for FLR, tumor center / FLR, tumor rim / FLR, whole tumor / PV, tumor center / PV, tumor rim / PV, whole tumor: GDCC-40 0.05, Gd-DTPA-BMA 0.1 mmol-Gd/kg; for PV, tumor center / PV, tumor rim / PV, whole tumor: plasma volume; for PV values (range over tumor regions, Table 5) / estimated FLR values (range over tumor regions, Table 5): tumor center to tumor rim
[6] = reference (36); cited from earlier work
[7] = in mice body; cited from earlier work
human VEGF-A = details: in vivo; cited from earlier work
[8] = tested on: HT-29 human colon carcinoma; assay: Effect of Avastin on growth of HT-29 colon cancer; assay type: in vivo, NCr-nu/nu nude mice; details: 36 h after Avastin-treatment, 200 μg/mouse i.p.; pre-treatment 508±185 mm^3
Experimental: The study protocol was approved by the local ethics committee for animal care and use. HT-29 human colon carcinoma cell line was purchased from American Type Culture Collection (ATCC, Manassas, Va.) with ATCC number HTB-38™. HT-29 cell line was cultured using ATCC complete growth medium (5 McCoy's Medium with 10% fetal bovine serum).
Athymic female NCr-nu/nu nude mice at 4 weeks were purchased form National Cancer Institute at Frederick, M D. Concentrated HT-29 cells in complete medium was mixed with Matrigel basement membrane matrix (BD Biosciences, San Jose, Calif.) at 1:1 ratio. 2×10^6 cells in 100 μl mixture were implanted s.c. in the flank of 12 mice weighing about 23 g.
Animals were selected for study when the tumors reached approximately 1 cm in diameter (about 3 weeks after tumor cells inoculation) and were randomly divided into two groups (each group n=6, group1 and group2). One group (group1) underwent DCE-MRI with macromolecular contrast agent-GDCC40K (MW: 40 KDa), and another group (group2) underwent DCE-MRI with small molecular weight contrast agent—Ominiscan (MW: 574 Da). Before treatment, Ominiscan was injected at 0.1 mmol-Gd/kg for […], GDCC40OK (40K Da) was injected at 0.05 mmol-Gd/kg for […]. […]
In addition, tumor size of all animals was determined using a caliper during the study.

human VEGF-A, sequence (P15692 207-311 limits assumed): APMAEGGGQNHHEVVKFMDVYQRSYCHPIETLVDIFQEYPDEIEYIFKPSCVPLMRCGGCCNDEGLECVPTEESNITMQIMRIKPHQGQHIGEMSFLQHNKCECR

Molecule | SI enhancement ratio (SI post/SI pre) of the whole untreated tumor [2] | residual tumor enhancement ratio (SI post/SI pre) [2] | K^trans 36 h after treatment [4] | fpv 36 h after treatment [4] | K^trans 7 days after treatment [4] | fpv 7 days after treatment [4] | K^trans pretreatment [4] | fpv pretreatment [4] | time at which SI of muscle reached plateau ([5]; DCE-MRI time course) | time at which SI of tumor rim reached a maximum ([5]; DCE-MRI time course) | FLR, tumor center [5] | FLR, tumor rim [5] | FLR, whole tumor [5] | PV, tumor center [5] | PV, tumor rim [5] | PV, whole tumor [5] | PV values (range over tumor regions, Table 5) [5] | estimated FLR values (range over tumor regions, Table 5) [5] | other results
(Gd-DTPA)-cystamine copolymers [GDCC-40] | 1.65±0.21 | 1.51±0.19 | 0.008 ± 0.004 | 0.008 ± 0.005 | 0.028 ± 0.029 | 0.030 ± 0.022 | 0.014 ± 0.002 | 0.028 ± 0.005 | about 1.5 min | about 12 min | 3.24 ± 1.10* 1/hr | 5.21 ± 0.88* 1/hr | 4.57 ± 0.91* 1/hr | 0.058 ± 0.046 | 0.082 ± 0.038 | 0.076 ± 0.032 | 0.058 to 0.082 | 3.24 to 5.21 h⁻¹ | untreated tumor enhancement ([1]; 0.01 mmol-Gd/kg): 0.14±0.03; untreated tumor enhancement ([1]; 0.025 mmol-Gd/kg): 0.26±0.05; untreated tumor enhancement ([1]; 0.05 mmol-Gd/kg): 0.62±0.19; FLR, untreated tumor ([3]; 0.01 mmol-Gd/kg): 6.05 and 6.05 ± 3.58; PS, untreated tumor ([3]; 0.01 mmol-Gd/kg): 0.997 ± 0.613; PV, untreated tumor ([3]; 0.01 mmol-Gd/kg): 0.124 and 0.124 ± 0.045; FLR, untreated tumor ([3]; 0.025 mmol-Gd/kg): 5.06 and 5.06 ± 1.84; PS, untreated tumor ([3]; 0.025 mmol-Gd/kg): 0.611 ± 0.351; PV, untreated tumor ([3]; 0.025 mmol-Gd/kg): 0.123 and 0.123 ± 0.059; FLR, untreated tumor ([3]; 0.05 mmol-Gd/kg): 3.95 ± 0.81; PS, untreated tumor ([3]; 0.05 mmol-Gd/kg): 0.517 ± 0.216; PV, untreated tumor ([3]; 0.05 mmol-Gd/kg): 0.103 ± 0.043; ratio of SI at the tumor rim to SI of the muscle ([5]; at 15 min): more than 3; time after injection to reach contrast (SI of tumor rim to SI of muscle) similar to Gd-DTPA-BMA ([5]; mouse, in vivo): about 4 min
CNC(=O)CN(CCN(CCN(CC(=O)[O-])CC(=O)NC)CC(=O)[O-])CC(=O)[O-].[Gd+3] [Gd-DTPA-BMA, gadodiamide, reference compound] | 1.60±0.19 | 1.66±0.10 | 0.066 ± 0.047 | 0.062 ± 0.039 | 0.069 ± 0.055 | 0.137 ± 0.034 | 0.07 ± 0.013 | 0.102 ± 0.047 | about 1.5 min | ~7 min | 9.93 ± 3.19 h⁻¹ | 28.42 ± 4.36 h⁻¹ | 20.86 ± 1.18 h⁻¹ | 0.098 ± 0.019 | 0.190 ± 0.018 | 0.138 ± 0.020 | 0.098 to 0.190 | 14.93 to 28.42 h⁻¹ | time at which tumor rim/muscle SI ratio reached plateau ([5]; DCE-MRI time course): ≤ 2 min
Albumin-Gd-DTPA |  |  |  |  |  |  |  |  |  |  |  |  |  |  |  |  |  |  | FLR values estimated using Albumin-Gd-DTPA [6]: 1.27 to 8.10 h⁻¹; PV values estimated using Albumin-Gd-DTPA [6]: 0.023 to 0.065
Bevacizumab [Avastin] |  |  |  |  |  |  |  |  |  |  |  |  |  |  |  |  |  |  | terminal half-life [7]: 1-2 weeks; dose enough to completely inhibit human VEGF-A (human VEGF-A): 50-100 μg/mouse; tumor size [8]: 510±171 mm^3
